In patent US20260258050A1, “IMMUNOMODULATOR” (HITGEN INC., priority 2023, published 2026):

Each compound was assayed against T1, Human IL-17A (Homo sapiens, UniProt Q16552) (assay: IL-17A enzyme-linked immunosorbent assay (competitive ELISA, IL-17A/IL-17Ra receptor-ligand binding)). Details: human IL-17A coated plate, human IL-17Ra, read-out: IC50, inhibitory activity of compounds on human IL-17A.
T1 sequence (Q16552 20-155 limits assumed): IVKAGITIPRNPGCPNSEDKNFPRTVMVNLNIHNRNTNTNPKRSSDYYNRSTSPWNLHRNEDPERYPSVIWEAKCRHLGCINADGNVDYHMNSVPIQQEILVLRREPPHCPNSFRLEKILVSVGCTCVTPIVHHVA
Parameters: purchased Sino Biological Inc. 12047-H07B
In short: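 Competitive ELISA with plates coated with human IL-17A at 0.2 μg/ml, blocked with 5% skim milk. Compound pre-incubated with IL-17A 10 min at 25 °C, then 16 nM IL-17Ra stock added for 30 min. Bound receptor detected by anti-Fc HRP/TMB, A450. IC50 from variable-slope fit of blank-corrected residual activity.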

IC50, ≤ 50 nM:
Cc1[nH]nc2c1-c1cnc(NC(=O)[C@@H](NC(=O)c3ccnn3C(C)C)C(C3CC3)C3CC3)cc1CN(Cc1ccccc1)C(=O)C2 [compound 182]
Cc1[nH]nc2c1-c1cnc(NC(=O)[C@@H](NC(=O)c3ccnn3C(C)C)C(C3CC3)C3CC3)cc1CN(C1CC1)C(=O)C2 [compound 191]
Cc1[nH]nc2c1-c1cnc(NC(=O)[C@@H](NC(=O)c3ccnn3C(C)C)C(C3CC3)C3CC3)cc1CN(CC(F)F)C(=O)C2 [compound 192]
Cc1[nH]nc2c1-c1cnc(NC(=O)[C@@H](NC(=O)c3ccnn3C(C)C)C(C3CC3)C3CC3)cc1CN(CC(C)(F)F)C(=O)C2 [compound 193]
Cc1[nH]nc2c1-c1cnc(NC(=O)[C@@H](NC(=O)c3ccnn3C(C)C)C(C3CC3)C3CC3)cc1CN(C1CC(F)(F)C1)C(=O)C2 [compound 194]
Cc1[nH]nc2c1-c1cnc(NC(=O)[C@@H](NC(=O)c3ccnn3C(C)C)C(C3CC3)C3CC3)cc1CN(C(C)C)C(=O)C2 [compound 195]
CC(=O)N1CCc2n[nH]c(C)c2-c2cnc(NC(=O)[C@@H](NC(=O)c3ccnn3C(C)C)C(C3CC3)C3CC3)cc2C1 [compound 196]
Cc1[nH]nc2c1-c1cnc(NC(=O)[C@@H](NC(=O)c3ccnn3C(C)C)C(C3CC3)C3CC3)cc1CN(C1CC1)CC2 [compound 198]
Cc1[nH]nc2c1-c1cnc(NC(=O)[C@@H](NC(=O)c3ccnn3C(C)C)C(C3CC3)C3CC3)cc1CN(CC(C)(F)F)CC2 [compound 199]
Cc1[nH]nc2c1-c1cnc(NC(=O)[C@@H](NC(=O)c3ccnn3C(C)C)C(C3CC3)C3CC3)cc1CN(C(C)C)CC2 [compound 200]
Cc1[nH]nc2c1-c1cnc(NC(=O)[C@@H](NC(=O)c3ccnn3C(C)C)C(C3CC3)C3CC3)cc1CN(C1CCC1)CC2 [compound 201]
Cc1[nH]nc2c1-c1cnc(NC(=O)[C@@H](NC(=O)c3ccnn3C(C)C)C(C3CC3)C3CC3)cc1CN(CC(F)F)CC2 [compound 202]
Cc1[nH]nc2c1-c1cnc(NC(=O)[C@@H](NC(=O)c3conc3C(C)C)C(C3CC3)C3CC3)cc1CN(C1CC1)CC2 [compound 214]
Cc1[nH]nc2c1-c1cnc(NC(=O)[C@@H](NC(=O)c3conc3C3CC3)C(C3CC3)C3CC3)cc1CN(C1CC1)CC2 [compound 215]
CCc1nocc1C(=O)N[C@H](C(=O)Nc1cc2c(cn1)-c1c(n[nH]c1C)CCN(C1CC1)C2)C(C1CC1)C1CC1 [compound 216]
CCn1nccc1C(=O)N[C@H](C(=O)Nc1cc2c(cn1)-c1c(n[nH]c1C)CCN(C1CC1)C2)C(C1CC1)C1CC1 [compound 217]
Cc1[nH]nc2c1-c1cc(F)c(NC(=O)[C@@H](NC(=O)c3ccnn3CCCF)C(C3CC3)C3CC3)cc1CN(C1CC1)CC2 [compound 218]
Cc1[nH]nc2c1-c1cc(F)c(NC(=O)[C@@H](NC(=O)/C(F)=C\C(C)C)C(C3CC3)C3CC3)cc1COCC2 [compound 229]
Cc1[nH]nc2c1-c1cc(F)c(NC(=O)[C@@H](NC(=O)/C(F)=C\C3CC3)C(C3CC3)C3CC3)cc1COCC2 [compound 230]
Cc1[nH]nc2c1-c1cnc(NC(=O)[C@@H](NC(=O)c3conc3C(C)C)C(C3CC3)C3CC3)cc1COCC2 [compound 234]
Cc1[nH]nc2c1-c1cnc(NC(=O)[C@@H](NC(=O)c3ccnn3CC(F)(F)F)C(C3CC3)C3CC3)cc1COCC2 [compound 236]
Cc1[nH]nc2c1-c1cnc(NC(=O)[C@@H](NC(=O)c3ccnn3C3CC3)C(C3CC3)C3CC3)cc1COCC2 [compound 237]
Cc1[nH]nc2c1-c1cnc(NC(=O)[C@@H](NC(=O)/C(F)=C\C(C)C)C(C3CC3)C3CC3)cc1COCC2 [compound 238]
Cc1[nH]nc2c1-c1cnc(NC(=O)[C@@H](NC(=O)/C(F)=C\C3CC3)C(C3CC3)C3CC3)cc1COCC2 [compound 239]
CCc1nocc1C(=O)N[C@H](C(=O)Nc1cc2c(cn1)-c1c(n[nH]c1C)CCOC2)C(C1CC1)C1CC1 [compound 240]
Cc1[nH]nc2c1-c1cnc(NC(=O)[C@@H](NC(=O)c3conc3C3CC3)C(C3CC3)C3CC3)cc1COCC2 [compound 241]
